# Experimental data taken from patent publication US20030148498A1, “Microorganism overproducing 5'-xanthylic acid” (priority 2001, published 2003).
# Columns and labels:
# Mutant strain CJXPK001 = assay: Growth of mutant strain in minimum medium with 3,4-dehydroproline; format: cell-based, Corynebacterium ammoniagenes; design: key: +: growth; −: no growth; conditions: 30° C., 5 days
# Procedure: (§1) To be more specific, in this innovative research, we adopted Corynebacterium ammoniagenes KFCC 10743 as parent strain and treated it with UV radiation and mutation derivatives such as N-methyl-N′-nitro-N-nitrosoguanidine (NTG) according to ordinary procedure and, by adding 0 to 50 mg/L of proline analogue 3,4-dehydroproline (Sigma Company) in the minimum medium shown in the following Table 1, we developed growing mutant strains. From them, a strain which grows in 30 mg/L 3,4-dehydroproline was separated, named CJXPK001. And, it was deposited under the Budapest Treaty to the Korea Culture Center of Microorganisms on Dec. 7, 2001 with accession Number KCCM 10340.
# (§2) Further, after adding 0 to 50 mg/L of 3,4-dehydroproline in the minimum medium shown in the above Table 1 according to concentration levels, the medium was fermented at 30° C. for 5 days. And the whole process was scrutinized to find the growth rates of the mutant strain CJXPK001 and the parent strain KFCC 10743.
# Parent strain KFCC 10743 = assay: Growth of parent strain in minimum medium with 3,4-dehydroproline; format: cell-based, Corynebacterium ammoniagenes; design: key to growth: +: growth; −: no growth; conditions: 5 days; for growth: 30° C.
# Procedure: as §1, §2
# [1] = parent strain KFCC 10743, 30° C.
structure (smiles),measurement,setting,value
"O=C(O)C1C=CCN1 (centres unmarked) [3,4-dehydroproline]",growth,"Mutant strain CJXPK001; 3,4-dehydroproline 30 mg/L",+
same,growth,"Mutant strain CJXPK001; 3,4-dehydroproline 40 mg/L",−
same,growth,"Mutant strain CJXPK001; 3,4-dehydroproline 50 mg/L",−
same,growth,"Parent strain KFCC 10743; 3,4-dehydroproline 5 mg/L",+
same,growth,"Parent strain KFCC 10743; 3,4-dehydroproline 10 mg/L",−
same,growth,"Parent strain KFCC 10743; 3,4-dehydroproline 20 mg/L",−
same,growth,"Parent strain KFCC 10743; 3,4-dehydroproline 30 mg/L",−
same,growth,"Parent strain KFCC 10743; 3,4-dehydroproline 40 mg/L",−
same,growth,"Parent strain KFCC 10743; 3,4-dehydroproline 50 mg/L",−
same,"3,4-dehydroproline concentration at which the strain showed resistance",Parent strain KFCC 10743; [1],5 mg/L
same,"3,4-dehydroproline concentration level at which no growth was observed",Parent strain KFCC 10743; [1],above 10 mg/L
